The results in this text go back to patent US20190119200A1, “TERTIARY AMIDES AND METHOD OF USE” (AbbVie Inc., priority 2016, published 2019).

Each structure is given as a SMILES string.

The subject of test [1] is LPA-induced MCP-1 in NRK-49F cells. Nature of the test: LPA-induced MCP-1 AlphaLISA assay. Type of test: cell-based. The following applies: Rattus norvegicus, final LPA 10 μM, 7 hours; for Emax: read-out: Maximum Inhibition. The gist of the method:
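NRK-49F rat fibroblasts, serum-starved overnight, pretreated with compound for 30 min at 37 °C (1% DMSO final), then stimulated with 10 μM LPA final. MCP-1 in the supernatant was measured by mouse/rat CCL2 AlphaLISA. IC50 values came from four-parameter logistic fits of the ratio data.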

Test [2] has as its target T1, LPAR1 (Homo sapiens, UniProt Q92633).
T1 construct: host or cells: U2OS
Briefly: LPAR1 FLIPR Assay. The test is classed as cell-based. The conditions noted are these: U2OS cells stably expressing LPAR1, LPA (EC80), Calcium 6 FLIPR dye; for Emax: read-out: Maximum Inhibition. Summed up:
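Calcium flux read-out (515-575 nm, FLIPR) in LPAR1-expressing U2OS cells after LPA challenge at EC80, given 3 min after compound addition; cells carried Calcium 6 dye loaded 2 h at 37° C. Eleven-point 3-fold dilutions were fitted with a four-parameter Hill equation for IC50.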

T1 sequence (Q92633 whole entry): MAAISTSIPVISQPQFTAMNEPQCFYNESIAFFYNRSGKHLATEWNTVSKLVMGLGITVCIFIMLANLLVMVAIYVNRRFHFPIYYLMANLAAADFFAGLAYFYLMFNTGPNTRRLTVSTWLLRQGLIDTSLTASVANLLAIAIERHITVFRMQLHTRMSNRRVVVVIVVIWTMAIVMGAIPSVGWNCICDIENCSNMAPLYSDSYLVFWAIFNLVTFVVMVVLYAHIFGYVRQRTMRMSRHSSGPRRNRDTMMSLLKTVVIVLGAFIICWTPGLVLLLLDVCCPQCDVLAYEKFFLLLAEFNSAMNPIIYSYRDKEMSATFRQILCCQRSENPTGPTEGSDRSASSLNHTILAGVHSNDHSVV

Take `COc1ccc(C(C)(C)C(=O)N(CCCCC(=O)O)CCCc2ccccc2)cc1` [Example 85, 5-{[2-(4-methoxyphenyl)-2-methylpropanoyl](3-phenylpropyl)amino}pentanoic Acid]: in test [1], the IC50 was above 10000 nM and the Emax amounted to 12%. Besides, in test [2], the IC50 was above 30000 nM and the Emax is 14%.
`CCS(=O)(=O)NC(=O)CCCCN(CCCc1ccccc1)C(=O)c1cc(OC)c(C)c(OC)c1` [Example 123, N-{5-[(ethanesulfonyl)amino]-5-oxopentyl}-3,5-dimethoxy-4-methyl-N-(3-phenylpropyl)benzamide]: in test [1], inhibition was half-maximal at 793 nM (IC50) and the Emax turned out to be 85%. In test [2], the IC50 came out at 46 nM and the Emax was found to be 94%.
On the same counts, the results for `O=C(O)CCCCN(CCCc1ccccc1)C(=O)C1CC(=O)Nc2cc(F)ccc21` (stereo not shown) [Example 170, 5-[(7-fluoro-2-oxo-1,2,3,4-tetrahydroquinoline-4-carbonyl)(3-phenylpropyl)amino]pentanoic Acid] are above 10000 nM, 50%, 333 nM and 81%.
On the same counts, the results for `COc1cc(C(=O)N(CCCCC(=O)NS(=O)(=O)C2CC2)CCCc2ccccc2)cc(OC)c1C` [Example 119, N-{5-[(cyclopropanesulfonyl)amino]-5-oxopentyl}-3,5-dimethoxy-4-methyl-N-(3-phenylpropyl)benzamide] are 1170 nM, 80%, 97 nM and 92%.
For the compound `CCCCC(CCCN(CCCc1ccccc1)C(=O)c1cc(OC)c(C)c(OC)c1)C(=O)O` (stereo not shown) [Example 93, 2-{3-[(3,5-dimethoxy-4-methylbenzoyl)(3-phenylpropyl)amino]propyl}hexanoic Acid], in test [1], the IC50 was found to be 819 nM and the Emax came to 84%. In addition, in test [2], the half-maximal inhibitory concentration (IC50) stood at 43 nM and the Emax amounted to 96%.
On the same counts, the results for `COc1cc(C(=O)N(CCCCC(=O)O)CCC(C)c2ccccc2)cc(OC)c1C` (stereo not shown) [Example 182, 5-[(3,5-dimethoxy-4-methylbenzoyl)(3-phenylbutyl)amino]pentanoic Acid] are 994 nM, 85%, 47 nM and 91%.
On the same counts, the results for `O=C(O)CCCCN(CCCc1ccccc1)C(=O)c1ccc2c(c1)OCO2` [Example 80, 5-[(2H-1,3-benzodioxole-5-carbonyl)(3-phenylpropyl)amino]pentanoic Acid] are above 10000 nM, 37%, above 30000 nM and 37%.
In the case of `COc1cc(C(=O)N(CCCCC(=O)NS(=O)(=O)C(F)(F)F)CCCc2ccccc2)cc(OC)c1C` [Example 150, 3,5-dimethoxy-4-methyl-N-{5-oxo-5-[(trifluoromethanesulfonyl)amino]pentyl}-N-(3-phenylpropyl)benzamide], the IC50 in test [1] came to 2030 nM; in test [2] it was 45 nM. Further, the Emax in test [1] turned out to be 67%; in test [2], 73%.
As for `COc1cc(C(=O)N(CCCc2cc(F)cc(F)c2)CCSCC(=O)O)cc(OC)c1C` [Example 125, [(2-{[3-(3,5-difluorophenyl)propyl](3,5-dimethoxy-4-methylbenzoyl)amino}ethyl)sulfanyl]acetic Acid], in test [1], the IC50 is above 10000 nM and the Emax was found to be 53%. In test [2], the half-inhibitory concentration (IC50) was above 10000 nM and the Emax came out at 32%.
Take `COc1cc(C(=O)N(CCCc2ccccc2)CCCC(O)C(=O)O)cc(OC)c1C1CC1` (stereo not shown) [Example 165, 5-[(4-cyclopropyl-3,5-dimethoxybenzoyl)(3-phenylpropyl)amino]-2-hydroxypentanoic Acid]: the figures for the IC50 in test [1] and in test [2] were 2730 nM and 45 nM, respectively. Besides, the Emax worked out at 70% in test [1] and 83% in test [2].
